In ChEMBL document CHEMBL1201862, “PubChem BioAssay data set” (2004):
Calls of active or inactive are those of the source.

What was measured:
[1] = target: Kallikrein-7 (Homo sapiens, UniProt P49862); assay: Fluorescence Intensity-based biochemical primary high throughput dose response assay to identify activators of kallikrein-7 (K7) zymogen.
[2] = target: T1, Caspase-6 (Homo sapiens, UniProt P55212); assay: inhibition of CASP6 peptide cleavage – biochemical, VEID-R110 fluorescence, cherry-pick, dose response (AID 720632)
T1 sequence (P55212 whole entry): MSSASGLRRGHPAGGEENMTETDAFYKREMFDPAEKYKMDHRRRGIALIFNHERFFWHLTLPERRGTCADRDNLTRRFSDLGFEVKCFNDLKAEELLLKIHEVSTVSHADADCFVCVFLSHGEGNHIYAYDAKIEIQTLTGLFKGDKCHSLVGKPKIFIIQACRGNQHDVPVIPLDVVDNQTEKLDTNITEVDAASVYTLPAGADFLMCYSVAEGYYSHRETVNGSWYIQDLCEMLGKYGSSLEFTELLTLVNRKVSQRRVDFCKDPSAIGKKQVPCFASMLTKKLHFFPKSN

[3] = target: T2, Carboxy-terminal domain RNA polymerase II polypeptide A small phosphatase 1 (Homo sapiens, UniProt Q9GZU7); assay: CTDSP1 inhibitors, concentration-response, biochemical, absorbance readout, ultra-high-throughput screen actives (AID 540297); type: functional
T2 sequence (Q9GZU7 whole entry): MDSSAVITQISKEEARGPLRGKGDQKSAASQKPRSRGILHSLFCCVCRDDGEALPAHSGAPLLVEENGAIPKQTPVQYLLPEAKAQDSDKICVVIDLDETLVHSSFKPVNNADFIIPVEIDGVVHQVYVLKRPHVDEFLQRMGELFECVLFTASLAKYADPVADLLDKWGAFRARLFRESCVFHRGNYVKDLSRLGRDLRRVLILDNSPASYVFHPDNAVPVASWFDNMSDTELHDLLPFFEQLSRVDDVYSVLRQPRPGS

[4] = target: T3, Heat shock factor protein 1 (Mus musculus, UniProt P38532); assay: decrease of HSF1-responsive luciferase luminescence – cell-based, NIH3T3, dose retest, confirmation (AID 2382); type: functional;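 also: NIH3T3 fibroblasts with HSF1-driven luciferase reporter stressed by proteasome inhibitor MG132; luminescence from HSF1-driven luciferase expression after 8 hours of MG132 stress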
T3 sequence (P38532 whole entry): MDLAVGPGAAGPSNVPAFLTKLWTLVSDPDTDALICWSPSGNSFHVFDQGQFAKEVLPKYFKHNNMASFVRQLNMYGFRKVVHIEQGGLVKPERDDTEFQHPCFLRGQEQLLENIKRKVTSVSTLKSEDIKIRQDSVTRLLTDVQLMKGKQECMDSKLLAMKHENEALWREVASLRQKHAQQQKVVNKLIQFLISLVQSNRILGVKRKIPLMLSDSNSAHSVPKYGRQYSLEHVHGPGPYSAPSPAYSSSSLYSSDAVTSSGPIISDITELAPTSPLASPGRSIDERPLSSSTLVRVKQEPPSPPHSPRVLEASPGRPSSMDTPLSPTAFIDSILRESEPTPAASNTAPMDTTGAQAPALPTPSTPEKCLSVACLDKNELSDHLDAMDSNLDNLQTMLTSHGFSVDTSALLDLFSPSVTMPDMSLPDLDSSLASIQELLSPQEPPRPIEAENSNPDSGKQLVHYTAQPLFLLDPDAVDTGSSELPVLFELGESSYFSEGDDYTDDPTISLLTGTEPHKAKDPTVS

[5] = target: Mu-type opioid receptor (Homo sapiens, UniProt P35372); type: functional, cell-based;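 also: U2OS cells with beta-arrestin recruitment to OPRM1 by beta-gal complementation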
Chain of Mu-type opioid receptor (P35372 whole entry): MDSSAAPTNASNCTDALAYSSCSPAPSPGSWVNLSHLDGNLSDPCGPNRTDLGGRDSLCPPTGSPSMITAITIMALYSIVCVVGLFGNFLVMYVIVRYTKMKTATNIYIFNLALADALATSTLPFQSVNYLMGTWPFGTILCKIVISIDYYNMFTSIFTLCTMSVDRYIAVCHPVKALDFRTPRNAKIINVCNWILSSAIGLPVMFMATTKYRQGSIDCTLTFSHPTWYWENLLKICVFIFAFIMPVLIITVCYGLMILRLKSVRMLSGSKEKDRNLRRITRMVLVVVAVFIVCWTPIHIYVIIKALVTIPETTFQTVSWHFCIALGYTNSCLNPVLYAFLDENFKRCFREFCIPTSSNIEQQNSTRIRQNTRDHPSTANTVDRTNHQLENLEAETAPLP

[6] = target: 5-hydroxytryptamine receptor 2A (Mus musculus, UniProt P35363); type: functional, cell-based;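 also: CHO-K1 cells with tagged receptor and beta-arrestin; agonist potency measured as compound-induced activation of the receptor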
Chain of 5-hydroxytryptamine receptor 2A (P35363 whole entry): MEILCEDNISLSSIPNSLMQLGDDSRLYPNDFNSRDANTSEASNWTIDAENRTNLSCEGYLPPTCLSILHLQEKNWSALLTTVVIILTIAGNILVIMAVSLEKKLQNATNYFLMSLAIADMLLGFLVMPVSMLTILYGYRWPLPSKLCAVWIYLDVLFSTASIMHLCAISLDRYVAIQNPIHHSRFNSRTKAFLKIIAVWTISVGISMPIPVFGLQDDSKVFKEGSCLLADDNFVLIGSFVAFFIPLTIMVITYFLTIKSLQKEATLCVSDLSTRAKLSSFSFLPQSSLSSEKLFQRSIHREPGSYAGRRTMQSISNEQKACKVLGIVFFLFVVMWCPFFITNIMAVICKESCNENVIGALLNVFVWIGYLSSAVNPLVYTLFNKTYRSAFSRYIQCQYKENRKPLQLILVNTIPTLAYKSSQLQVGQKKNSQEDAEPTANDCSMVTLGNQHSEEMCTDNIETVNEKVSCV

[7] = target: Paired box protein Pax-8 (Homo sapiens, UniProt Q06710); assay: PAX8 transcriptional activity inhibition in RMG-I – RMG-I cells, luciferase, cherry-pick, dose response (AID 687027); type: functional, cell-based;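 also: luciferase reporter driven by Pax8 target thyroperoxidase promoter measured by SteadyGlo luminescence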
Chain of Paired box protein Pax-8 (Q06710 whole entry): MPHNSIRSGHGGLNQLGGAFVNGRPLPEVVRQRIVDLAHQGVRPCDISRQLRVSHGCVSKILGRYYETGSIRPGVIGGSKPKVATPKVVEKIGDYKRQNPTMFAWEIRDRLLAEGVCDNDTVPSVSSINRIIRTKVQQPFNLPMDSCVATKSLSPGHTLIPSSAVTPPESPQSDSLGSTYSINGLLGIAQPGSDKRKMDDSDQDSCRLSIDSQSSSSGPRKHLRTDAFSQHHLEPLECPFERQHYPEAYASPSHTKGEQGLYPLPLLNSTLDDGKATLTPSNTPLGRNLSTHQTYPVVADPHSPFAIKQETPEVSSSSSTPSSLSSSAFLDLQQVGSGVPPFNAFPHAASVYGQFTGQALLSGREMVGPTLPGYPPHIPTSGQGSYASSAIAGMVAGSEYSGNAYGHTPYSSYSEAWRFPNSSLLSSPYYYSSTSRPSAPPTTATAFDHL

[8] = target: SWI/SNF-related matrix-associated actin-dependent regulator of chromatin subfamily A member 2 (Homo sapiens, UniProt P51531); assay: Luminescence-based cell-based high throughput dose response assay to identify activators of the function of SWI/SNF related, matrix associated, actin dependent regulator of chromatin, subfamily a, member 2 (SMARCA2, BRM).; type: functional
Chain of SWI/SNF-related matrix-associated actin-dependent regulator of chromatin subfamily A member 2 (P51531 whole entry): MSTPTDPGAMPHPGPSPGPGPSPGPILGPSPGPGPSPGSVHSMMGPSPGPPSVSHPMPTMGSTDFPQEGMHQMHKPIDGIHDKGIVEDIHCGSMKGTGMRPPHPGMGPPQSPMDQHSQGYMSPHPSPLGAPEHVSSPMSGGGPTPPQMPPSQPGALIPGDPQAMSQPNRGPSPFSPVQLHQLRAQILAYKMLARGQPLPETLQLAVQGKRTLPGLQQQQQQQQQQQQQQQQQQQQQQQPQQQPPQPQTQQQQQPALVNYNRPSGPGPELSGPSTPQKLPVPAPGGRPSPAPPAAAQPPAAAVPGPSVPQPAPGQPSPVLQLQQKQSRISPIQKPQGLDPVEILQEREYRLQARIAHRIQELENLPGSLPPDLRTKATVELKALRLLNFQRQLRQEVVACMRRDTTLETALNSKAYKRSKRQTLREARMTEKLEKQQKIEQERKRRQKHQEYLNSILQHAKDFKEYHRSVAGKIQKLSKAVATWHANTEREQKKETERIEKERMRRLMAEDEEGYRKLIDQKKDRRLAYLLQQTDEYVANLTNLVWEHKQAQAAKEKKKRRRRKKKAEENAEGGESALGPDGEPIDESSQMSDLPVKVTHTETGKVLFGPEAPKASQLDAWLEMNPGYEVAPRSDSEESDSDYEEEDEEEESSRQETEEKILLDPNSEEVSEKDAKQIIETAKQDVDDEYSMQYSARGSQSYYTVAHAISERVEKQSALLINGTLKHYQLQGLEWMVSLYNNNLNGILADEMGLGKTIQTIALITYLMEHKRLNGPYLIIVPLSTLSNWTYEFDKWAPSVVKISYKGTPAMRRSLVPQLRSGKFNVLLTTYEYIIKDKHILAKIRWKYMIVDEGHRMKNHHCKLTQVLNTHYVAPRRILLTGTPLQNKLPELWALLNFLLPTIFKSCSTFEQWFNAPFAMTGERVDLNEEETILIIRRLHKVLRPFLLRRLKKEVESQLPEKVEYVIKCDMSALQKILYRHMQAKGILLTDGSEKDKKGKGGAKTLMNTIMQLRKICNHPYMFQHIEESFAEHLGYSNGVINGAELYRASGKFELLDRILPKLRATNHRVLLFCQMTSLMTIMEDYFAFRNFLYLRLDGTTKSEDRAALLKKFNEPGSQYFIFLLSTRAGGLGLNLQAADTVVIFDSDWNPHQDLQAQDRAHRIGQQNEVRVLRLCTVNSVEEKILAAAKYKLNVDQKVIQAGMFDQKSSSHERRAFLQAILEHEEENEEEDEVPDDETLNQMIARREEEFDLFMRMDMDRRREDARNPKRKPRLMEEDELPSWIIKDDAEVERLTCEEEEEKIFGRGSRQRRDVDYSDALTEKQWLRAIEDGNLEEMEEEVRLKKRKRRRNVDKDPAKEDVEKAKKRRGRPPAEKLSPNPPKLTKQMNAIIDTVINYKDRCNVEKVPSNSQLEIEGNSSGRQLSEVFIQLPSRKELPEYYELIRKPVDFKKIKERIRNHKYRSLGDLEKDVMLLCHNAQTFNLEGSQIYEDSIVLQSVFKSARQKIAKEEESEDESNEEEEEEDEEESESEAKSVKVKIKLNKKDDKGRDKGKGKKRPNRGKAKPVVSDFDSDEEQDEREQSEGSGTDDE

[9] = Counterscreen for activators of the function of SWI/SNF related, matrix associated, actin dependent regulator of chromatin, subfamily a, member 2 (SMARCA2, BRM): Luminescence-based cell-based high throughput dose response assay to identify non-selective compounds using the VP16 reporter assay.; type: functional
[10] = target: Heat shock protein HSP 90-alpha (Homo sapiens, UniProt P07900); type: functional, organism-based
[11] = target: Genome polyprotein (dengue virus type 2, UniProt P29990); assay: flavivirus cap methylation enzyme inhibition – biochemical, confirmation dose response, primary screen (AID 588689); type: functional
Chain of Genome polyprotein (P29990 2492-3391 limits assumed): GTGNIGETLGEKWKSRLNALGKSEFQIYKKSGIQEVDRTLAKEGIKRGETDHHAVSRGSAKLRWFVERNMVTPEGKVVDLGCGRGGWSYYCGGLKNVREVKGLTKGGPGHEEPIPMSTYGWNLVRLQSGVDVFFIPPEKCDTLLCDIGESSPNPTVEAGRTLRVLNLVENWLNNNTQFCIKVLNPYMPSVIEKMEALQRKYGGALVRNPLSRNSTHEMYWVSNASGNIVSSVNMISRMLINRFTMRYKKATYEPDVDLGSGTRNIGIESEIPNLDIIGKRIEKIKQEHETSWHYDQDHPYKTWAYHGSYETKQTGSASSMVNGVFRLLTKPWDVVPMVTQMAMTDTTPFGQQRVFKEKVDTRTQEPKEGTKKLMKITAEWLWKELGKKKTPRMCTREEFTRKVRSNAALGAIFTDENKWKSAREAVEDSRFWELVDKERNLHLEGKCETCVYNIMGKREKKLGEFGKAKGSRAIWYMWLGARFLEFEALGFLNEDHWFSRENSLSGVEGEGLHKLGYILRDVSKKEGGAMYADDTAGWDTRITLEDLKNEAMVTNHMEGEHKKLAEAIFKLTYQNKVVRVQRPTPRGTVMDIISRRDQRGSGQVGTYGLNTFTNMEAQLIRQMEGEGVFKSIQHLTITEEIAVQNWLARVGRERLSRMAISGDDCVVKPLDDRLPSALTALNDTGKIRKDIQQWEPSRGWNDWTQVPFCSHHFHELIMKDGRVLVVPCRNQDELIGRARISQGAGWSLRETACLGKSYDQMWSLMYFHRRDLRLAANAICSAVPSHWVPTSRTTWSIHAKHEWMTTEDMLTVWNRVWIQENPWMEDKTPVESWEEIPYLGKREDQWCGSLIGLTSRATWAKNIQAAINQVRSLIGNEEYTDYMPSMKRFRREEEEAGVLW

[12] = tested on: Vero; assay: viability of Vero cells under compound – cytotoxicity control for flavivirus capping enzyme inhibitors (AID 588742); type: functional; conditions: Chlorocebus sabaeus
[13] = tested on: H9c2; assay: cells; type: functional, cell-based; conditions: Rattus norvegicus, H9c2, Myocardium;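 also: confirmatory concentration-response retest of ultra-high-throughput screening hits for modulation of myocardial damage; cell death induced by hydrogen peroxide oxidative stress; compound pretreatment for 60 min then peroxide exposure for 2 h; potency is for protecting the cells against peroxide damage rather than for killing them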
[14] = tested on: Vero; assay: cells; type: functional; conditions: Chlorocebus sabaeus
[15] = general cell-killing toxicity readout – plate reader, dry powder samples, cytotoxicity control for PAX8 inhibitor project, dose response (AID 743021); type: functional, cell-based
[16] = target: T4, Rac GTPase-activating protein 1 (Homo sapiens, UniProt Q9H0H5); assay: blockers of MgcRacGAP-driven Rac1 GTP hydrolysis – biochemical, ADP Hunter fluorescence, primary and confirmatory, confirmation (AID 624330); type: functional
T4 sequence (Q9H0H5 whole entry): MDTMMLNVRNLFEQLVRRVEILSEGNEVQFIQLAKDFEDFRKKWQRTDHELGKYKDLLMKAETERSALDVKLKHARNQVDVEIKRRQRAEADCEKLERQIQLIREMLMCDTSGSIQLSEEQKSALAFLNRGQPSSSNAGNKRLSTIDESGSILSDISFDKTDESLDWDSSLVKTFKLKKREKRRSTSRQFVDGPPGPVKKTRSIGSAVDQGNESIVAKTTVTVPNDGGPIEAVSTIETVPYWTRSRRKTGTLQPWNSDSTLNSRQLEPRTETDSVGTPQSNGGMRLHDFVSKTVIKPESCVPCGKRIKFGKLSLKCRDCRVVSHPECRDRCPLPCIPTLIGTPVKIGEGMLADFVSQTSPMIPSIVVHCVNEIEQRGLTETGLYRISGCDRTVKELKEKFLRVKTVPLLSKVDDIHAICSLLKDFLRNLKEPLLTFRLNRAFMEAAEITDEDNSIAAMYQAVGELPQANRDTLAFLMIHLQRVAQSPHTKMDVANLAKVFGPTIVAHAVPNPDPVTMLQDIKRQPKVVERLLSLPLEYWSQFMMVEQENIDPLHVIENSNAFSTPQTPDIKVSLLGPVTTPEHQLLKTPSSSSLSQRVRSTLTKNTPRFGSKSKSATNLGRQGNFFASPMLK

[17] = viability loss in HeLa cells – cytotoxicity control for MgcRacGAP inhibitor project, dose response (AID 624300); type: functional
[18] = target: T5, DNA repair protein RAD52 homolog (Homo sapiens, UniProt P43351); type: functional, biochemical
T5 sequence (P43351 whole entry): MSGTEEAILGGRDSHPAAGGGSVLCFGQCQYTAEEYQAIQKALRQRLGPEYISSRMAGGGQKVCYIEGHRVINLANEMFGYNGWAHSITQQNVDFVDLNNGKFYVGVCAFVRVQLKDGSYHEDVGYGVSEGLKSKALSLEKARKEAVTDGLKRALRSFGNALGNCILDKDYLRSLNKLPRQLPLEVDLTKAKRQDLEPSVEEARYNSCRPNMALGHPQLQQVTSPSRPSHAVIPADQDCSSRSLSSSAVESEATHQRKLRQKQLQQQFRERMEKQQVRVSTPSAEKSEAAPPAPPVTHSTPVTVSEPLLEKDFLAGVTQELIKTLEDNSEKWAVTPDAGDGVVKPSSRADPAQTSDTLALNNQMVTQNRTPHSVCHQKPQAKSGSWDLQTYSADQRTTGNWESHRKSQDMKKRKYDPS

[19] = target: T6, Beta-lactamase (Pseudomonas aeruginosa, UniProt Q79MP6); assay: […] counterscreen for selective VIM-2 inhibitors: dose response biochemical high throughput screening assay to identify inhibitors of IMP-1 metallo-beta-lactamase.
T6 sequence (Q79MP6 whole entry): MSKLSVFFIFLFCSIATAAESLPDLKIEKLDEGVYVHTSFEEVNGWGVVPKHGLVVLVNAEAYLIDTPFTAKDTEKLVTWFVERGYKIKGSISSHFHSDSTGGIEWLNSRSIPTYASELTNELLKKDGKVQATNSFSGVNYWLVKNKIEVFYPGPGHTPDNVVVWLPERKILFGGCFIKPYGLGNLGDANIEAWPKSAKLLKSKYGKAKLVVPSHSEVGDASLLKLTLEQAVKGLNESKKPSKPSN

[20] = target: T6, Beta-lactamase; assay: inhibition of IMP-1 beta-lactamase activity – biochemical, epi-absorbance, selectivity assay for VIM-2 inhibitor project, dose response (AID 1920)
[21] = target: Beta-lactamase (Salmonella choleraesuis (strain SC-B67), UniProt Q5J463); assay: Epi-absorbance-based counterscreen for selective VIM-2 inhibitors: dose response biochemical high throughput screening assay to identify inhibitors of TEM-1 serine-beta-lactamase.
Chain of Beta-lactamase (Salmonella choleraesuis (strain SC-B67), UniProt Q5J463) (Q5J463 whole entry): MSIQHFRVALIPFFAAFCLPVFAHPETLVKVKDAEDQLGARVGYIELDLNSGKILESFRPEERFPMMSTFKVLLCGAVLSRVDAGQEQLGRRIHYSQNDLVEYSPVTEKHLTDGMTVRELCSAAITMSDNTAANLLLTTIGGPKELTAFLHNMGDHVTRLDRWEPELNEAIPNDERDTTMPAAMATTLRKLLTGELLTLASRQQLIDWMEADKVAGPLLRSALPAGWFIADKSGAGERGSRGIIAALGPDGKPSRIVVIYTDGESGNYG

[22] = target: T7, Polyadenylate-binding protein 1 (Homo sapiens, UniProt P11940); assay: MLLE binding blockers, Cy5 peptide tracer – biochemical, fluorescence polarization, Cy5-PAM2 peptide, secondary, miRNA deadenylation inhibitor project, dose response (AID 602260); type: functional; conditions: read-out: IC50_Mean
T7 sequence (P11940 whole entry): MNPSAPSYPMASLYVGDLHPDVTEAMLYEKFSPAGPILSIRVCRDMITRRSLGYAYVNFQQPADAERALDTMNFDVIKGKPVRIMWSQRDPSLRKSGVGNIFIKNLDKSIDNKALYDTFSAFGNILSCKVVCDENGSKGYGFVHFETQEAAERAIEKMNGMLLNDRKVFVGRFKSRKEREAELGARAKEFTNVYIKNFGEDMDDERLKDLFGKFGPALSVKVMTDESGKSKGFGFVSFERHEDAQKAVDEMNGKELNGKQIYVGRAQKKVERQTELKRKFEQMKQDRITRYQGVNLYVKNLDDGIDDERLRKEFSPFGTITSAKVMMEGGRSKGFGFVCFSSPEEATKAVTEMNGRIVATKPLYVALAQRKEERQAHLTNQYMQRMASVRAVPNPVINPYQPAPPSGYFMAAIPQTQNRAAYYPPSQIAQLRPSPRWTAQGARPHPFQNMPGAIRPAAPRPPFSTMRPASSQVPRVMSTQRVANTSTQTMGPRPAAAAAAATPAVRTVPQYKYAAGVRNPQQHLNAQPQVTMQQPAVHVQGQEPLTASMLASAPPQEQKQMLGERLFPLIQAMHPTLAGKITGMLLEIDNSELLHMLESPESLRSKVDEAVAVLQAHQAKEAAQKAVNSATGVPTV

[23] = target: ATP-dependent molecular chaperone HSP82 (Candida albicans (strain WO-1) (Yeast), UniProt C4YTQ8); assay: steroid-induced GRE reporter decrease in yeast – S. cerevisiae, luminescence, Hsp90 inhibitor project, dose response (AID 2400); type: functional, cell-based;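 also: beta-galactosidase luminescence from glucocorticoid response element reporter as proxy for Hsp90 function; inhibitor potency where signal loss means Hsp90 inhibition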
[24] = target: T7, Polyadenylate-binding protein 1; assay: MLLE domain peptide-binding blockers, IC50 – biochemical, fluorescence polarization, FITC-PAM2 peptide, dose response (AID 602259); type: functional; conditions: read-out: IC50_Mean
[25] = target: T8, Serine/threonine-protein phosphatase (Candida dubliniensis (strain CD36 / CBS 7987 / NCPF 3949 / NRRLY-17841) (Yeast), UniProt B9W6M3); assay: blockers of CaCl2-induced CDRE-lacZ signaling – S. cerevisiae, luminescence, secondary, dose response (AID 2388); type: functional, cell-based;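 also: yeast reporter cells carrying a calcineurin-responsive lacZ construct stimulated with calcium chloride; luminescent beta-galactosidase reporter signal in whole cells rather than isolated phosphatase activity; potency for inhibition where a drop in reporter signal means calcineurin blockade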
T8 sequence (B9W6M3 whole entry): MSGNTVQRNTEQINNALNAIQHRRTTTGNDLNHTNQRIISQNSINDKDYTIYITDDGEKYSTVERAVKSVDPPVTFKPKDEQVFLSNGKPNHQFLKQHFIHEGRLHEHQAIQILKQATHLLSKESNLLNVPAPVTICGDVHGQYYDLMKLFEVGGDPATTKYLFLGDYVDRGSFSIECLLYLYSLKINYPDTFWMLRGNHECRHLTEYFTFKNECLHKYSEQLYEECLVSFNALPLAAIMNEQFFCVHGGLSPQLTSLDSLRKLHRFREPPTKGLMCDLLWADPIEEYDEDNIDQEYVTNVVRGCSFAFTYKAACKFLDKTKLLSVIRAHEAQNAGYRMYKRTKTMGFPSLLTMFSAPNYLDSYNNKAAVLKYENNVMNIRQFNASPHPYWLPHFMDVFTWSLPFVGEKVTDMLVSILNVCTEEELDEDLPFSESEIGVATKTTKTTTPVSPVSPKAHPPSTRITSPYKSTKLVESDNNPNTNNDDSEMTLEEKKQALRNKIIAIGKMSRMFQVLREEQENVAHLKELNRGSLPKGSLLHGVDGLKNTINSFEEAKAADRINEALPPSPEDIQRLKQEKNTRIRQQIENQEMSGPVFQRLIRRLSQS

[26] = fluconazole-exposed Candida albicans growth modulators – fluorescence, retest, confirmation (AID 2467); type: functional, cell-based
[27] = NIH-3T3 fibroblast cytotoxicity, dose response, cytotoxicity control, cell-based, fluorescence, Alamar Blue, secondary assay (AID 2327); type: functional;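 also: NIH-3T3 mouse fibroblasts cultured with fluconazole at 8 µg/mL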

Compound: Cc1cccn2c(=O)c3cc(C(=O)NC4CCS(=O)(=O)C4)sc3nc12 (configuration not stated)
- EC50 [1]: 25.1 µM (inactive)

Compound: Nc1cc([N+](=O)[O-])ccc1N1C(=O)CCCC1=O
- AC50 [2]: 18.3 µM (active)
- IC50 [3]: 10.8 µM (active)

Compound: Nc1nc(-c2ccccc2)nc(O)c1N=O
- AC50 [2]: 11.6 µM (active)

Compound: Cc1cc(C)cc(NC(=O)Cc2ccc(S(=O)(=O)N3CCCC3)s2)c1
- AC50 [2]: 24.2 µM (active)

Compound: c1ccc(COc2cccc(CN3CCN(c4ccccn4)CC3)c2)cc1
- EC50 [4]: > 195 µM (not active)
- EC50 [5]: 92.5 µM (inactive)
- EC50 [6]: 0.022 µM (active)

Compound: CC(C)=CCNc1ncnc2c1c(C#N)cn2C1OC(CO)C(O)C1O (configuration not stated)
- AC50 [7]: 3.79 µM (active)
- EC50 [8]: > 91.1 µM (inactive)
- EC50 [9]: > 91.1 µM (inactive)

Compound: Oc1c(Cl)cccc1Cc1cc(Cl)cc(Cl)c1O
- AC50 [10]: 3.05 µM (active)
- IC50 [11]: 45.5 µM (active)
- CC50 [12]: 19.3 µM (active)

Compound: NC(=O)c1ccsc1NC(=O)c1ccc([N+](=O)[O-])o1
- AC50 [7]: 3.8 µM (active)
- IC50 [13]: > 79 µM (inactive)
- EC50 [8]: > 91.1 µM (inactive)
- EC50 [9]: > 91.1 µM (inactive)
- CC50 [14]: 11.7 µM (active)

Compound: O=C(C(=O)N(Cc1ccccc1)Cc1ccccc1)c1c(-c2ccccc2)[nH]c2ccccc12
- AC50 [7]: 7.45 µM (active)
- AC50 [15]: 44.5 µM (active)
- IC50 [13]: > 79 µM (inactive)

Compound: COc1cc2c[n+](C)c3c4ccccc4ccc3c2cc1OC
- IC50 [16]: 60.5 µM (active)
- CC50 [17]: 66 µM (active)
- AC50 [18]: 0.36 µM (active)
- EC50 [8]: > 91.1 µM (inactive)
- EC50 [9]: > 91.1 µM (inactive)

Compound: O=C(O)C(NC(=O)c1ccccc1)=C(Cl)Cl
- IC50 [19]: > 59.6 µM (inactive)
- IC50 [20]: > 59.6 µM (inactive)
- IC50 [21]: > 59.6 µM (inactive)

Compound: CCN(CC)C(=O)N[C@H]1C[C@@H]2c3cccc4[nH]cc(c34)C[C@H]2N(C)C1 [TERGURIDE]
- EC50 [5]: 92.5 µM (inactive)
- EC50 [6]: 0.0038 µM (active)

Compound: O=C1CN(C(=O)COC(=O)c2ccc([N+](=O)[O-])o2)c2ccccc2N1
- AC50 [2]: 15.1 µM (active)

Compound: O=C(NCc1ccco1)c1sc(=S)n2c1[nH]c(=O)c1ccccc12
- IC50 [22]: > 66 µM (inactive)
- EC50 [23]: > 160 µM (inactive)
- IC50 [24]: > 66 µM (inactive)
- IC50 [16]: 75.6 µM (active)
- EC50 [25]: > 180 µM (inactive)
- EC50 [26]: 0.837 µM (active)
- EC50 [27]: > 160 µM (inactive)

Compound: CCOc1ccc(NC(=O)CCN2CCN(c3ccccc3F)CC2)cc1
- EC50 [5]: 92.6 µM (inactive)
- EC50 [6]: 0.0925 µM (active)
